Reference: patent US9629822B2, “Flavonoid based antiviral targets” (UNIVERSITY OF CENTRAL FLORIDA RESEARCH FOUNDATION, INC., priority 2012, dated 2017)
“Also recorded” adds a separate entry of the source. Where two headings read alike, the source gives them in different places.

Columns and labels:
US28 receptor = molecular target: T1, US28 receptor (Human cytomegalovirus, UniProt P69332); assay: PathDetect trans Elk1 luciferase reporter gene assay in US28-transfected 293T HEK cells; assay type: cell-based, Human Cytomegalovirus (HCMV); details: for type of activity on the US28 receptor (agonist / inverse agonist / none), in words: Elk1 reporter, US28-transfected HEK cells; for Efficacy(%): maximum intrinsic activity from dose-response curve; for Efficacy(%) / Emax: negative = inverse agonism; for Emax: read-out: Efficacy(%), maximum intrinsic activity from dose-response curve
T1 construct: expressed in transfected cells; host or cells: HEK 293T cells, transiently transfected
T1 sequence (P69332 whole entry): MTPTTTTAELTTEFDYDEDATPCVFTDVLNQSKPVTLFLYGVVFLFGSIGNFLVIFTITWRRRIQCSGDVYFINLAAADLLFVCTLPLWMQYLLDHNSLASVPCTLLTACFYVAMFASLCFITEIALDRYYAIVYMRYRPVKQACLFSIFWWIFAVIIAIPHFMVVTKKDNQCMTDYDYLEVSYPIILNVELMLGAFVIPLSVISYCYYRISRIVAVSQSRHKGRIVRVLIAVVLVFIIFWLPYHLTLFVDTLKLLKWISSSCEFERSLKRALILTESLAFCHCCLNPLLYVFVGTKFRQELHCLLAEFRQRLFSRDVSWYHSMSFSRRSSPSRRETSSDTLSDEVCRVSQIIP
From the text: Having generated a homologous series of chalcones and flavones, their ability to interact with the US28 receptor in human embryonic kidney (HEK) cells was investigated using an Elk-1 gene reporter assay (FIG. 2). HEK cells were transfected with either an empty vector (i.e., mock cells) or with a vector carrying US 28. These matched HEK cells provided a means to evaluate off-target effects as well as innate drug toxicity. As many of the flavonoid drugs were not water-soluble, all drug stock solutions were made in 100% dimethylsulfoxide (DMSO). The final DMSO concentration for each cell-based experiment, however, was 1% DMSO. To account for the presence of DMSO, 1% DMSO controls were run in parallel. […] values of the homologous series were also determined in Chinese hamster ovary (CHO) cells in order to assess the relative toxicities of each member of the series in a different cell line (see Table 1).
Interaction with the US28 receptor was measured by a decrease in luminescence using a firefly (Photinus pyralis) luciferase-based PathDetect Elk1 gene reporter assay (FIG. 2).^23,24 This assay assessed the modulation of US28-mediated activation of mitogen-activated protein kinase (MAPK) signaling pathways (results are shown in Table 1). […] Such compounds which reduce MAPK signaling will have direct utility in the treatment of proliferative disorders including but not limited cancer.
After transfection the US28 is expressed and activates MAPK. The MAPK phosphorylates the activator domain of the GAL4dbd/Elk1 fusion protein, and causes its dimerization. The dimer then binds to the GAL4 UAS region of the reporter gene and allows for luciferase transcription. The luciferase mRNA is then translated and the luciferase protein is detected via luminescence by the use of the Bright-Glo reagent.
(§1) The efficacy of each compound on the US28 receptor was investigated in luciferase based reporter gene assay PathDetect trans Elk1 (Agilent, Stratagene)^23 as described previously.^13 Briefly, the human embryonic kidney (HEK) 293T cells were transiently-transfected with 0.1 μg Elk1, 5 μg Luc, and 5 μg of US28 vector or empty pcDNA3 vector (mock cells). Five hours after transfection, the cells were washed with DMEM containing 1% FBS, harvested, seeded in a white half-area 96-well plate (20,000 cells/well) and incubated with the indicated concentrations of test compounds. The incubation buffer consisted of DMEM, 1% FBS, 2 mM L-glutamine, 1% penicillin-streptomycin and 1% DMSO. The cells were incubated at 37° C. in the humid atmosphere with 5% CO2 for an additional 20-24 hours. The luciferase substrate BrightGlo (Promega) was used according to the manufacturer's instruction. The luminescence intensity was acquired using microplate reader Victor3V (Perkin-Elmer). The basal luminescence of mock transfected cells was approximately 500 RLU and the basal luminescence of US28-transfected cells was 4-5-fold higher (2000-2500 RLU). As the inhibitors gave differential responses in terms of their ability to reduce US 28 mediated signaling, their relative EC50 values were determined by dosing the US-28 transfected HEK cells with increasing concentrations of each compound. In this case, the EC50 value is the concentration of the compound needed to provoke a response halfway between the compound's maximal response (change in luminescence) and the no-compound control in the same US-28 transfected cell line. A plot of relative luminescence versus log of the compound concentration provided a dose-response curve from which the % efficacy was derived via non-linear regression methods using the algorithms in PRISM 5.0 (GraphPad Software, San Diego, Calif.).

[1] = test system: mock transfected 293T HEK cells; assay: PathDetect Elk1 luminescence in mock transfected (empty pcDNA3 vector) 293T HEK cells, off-target effect; assay type: cell-based, human; details: for activation at 10 µM: Homo sapiens, read-out: Effect(%) on mock cells with each drug at 10 μM
Method: As a control, the empty pcDNA3 plasmid vector and the components of PathDetect system were also used for mock transfection of 293T HEK cells. Controls containing 1% DMSO were run in parallel. The relative luminescence results found with mock transfected 293T HEK cells treated with 10 μM drug and the untreated 1% DMSO control were compared via the following Equation 1. % Effect on mock cells=(100%×(mock cell luminescence/DMSO control luminescence))−100% Equation (1)
This equation was derived in order to assess the net effect each compound had on non-US28 containing HEK cells transfected via the same protocol. These control experiments were critical as they provided a method to address off target effects such as compound toxicity, which could give rise to false positives in the PathDetect assay.
Compounds, which had no off-target effects, gave nearly identical luminescence values in both the mock cells and the 1% DMSO control (i.e., a mock cell luminescence/DMSO control luminescence ratio of 1) and a net effect of 0% via Equation 1 (e.g., 9j: 0% in Table 1). In contrast, compounds that were stimulatory to the treated HEK cells gave higher mock cell luminescence than the DMSO control, a ratio >1, and a net positive value in Equation 1 for the % effect on mock cells (e.g., 8f: 290%). On the other hand, compounds that were intrinsically toxic gave lower luminescence in the treated mock cells than the DMSO control, a ratio below 1, and a net negative value for the % effect on mock cells (e.g., 8d: ˜42%).
as §1

CHO cells = assay: CHO cell toxicity, MTS assay, 48 h; assay type: cell-based, Chinese hamster; details: 37° C., MTS reagent; for IC50: Cricetulus griseus, CHO, read-out: CHO 48 h IC50 value
Method: In each case, the chalcone system 8 was more toxic than the corresponding ring-closed system, 9.
The CHO assay was conducted to assess the general toxicity of each flavonoid drug. Briefly, cell growth was assayed in sterile 96-well microtiter plates (Costar 3599, Corning, N.Y., USA) in the presence of each drug. Experiments were conducted in triplicate. CHO cells were plated at 10,000 cells/mL. Drug solutions were prepared in 100% DMSO and dosed so that the final DMSO concentration was <1%. For example, 1 μL of drug solution was added to the CHO cells plated in each well in 100 μL of media. Drug additions occurred after an initial overnight incubation of CHO cells in each well. After drug was added, the cells were incubated in 5% CO2 for 48 h at 37° C. The MTS reagent (Promega Cell Titer 96 Aqueous non-radioactive cell proliferation reagent) was added (20 μL) and the CHO cells were incubated for an additional 4h and then absorbance at 490 nm was measured on a BioTek Synergy MX plate reader. […] IC50 values were determined from the corresponding plot of relative absorbance at 490 nm vs drug concentration.

[2] = TZMbI assay for cell safety (cell viability and growth, CytoTox Glo); details: human, TZMbI cells, read-out: % decrease in viability compared to 0.1% DMSO vehicle based on viable cell luminescence
Method: Assays were performed below in accordance with the procedures set forth in The Journal of Immunology, 2006, 176, pp. 6900-905; AIDS Research and Human Retroviruses, 2004, 20:11, pp. 1157-1665.^32,33 TZMbI assays for cell safety were performed to identify potential anti-viral compounds. TZMbI assays for cell safety were performed to identify potential anti-viral compounds per the methods.

HIV-1 BaL = assay: Anti-HIV assay (luciferase, HIV-1 BaL infection); assay type: cell-based
Method: Assays were performed below in accordance with the procedures set forth in The Journal of Immunology, 2006, 176, pp. 6900-905; AIDS Research and Human Retroviruses, 2004, 20:11, pp. 1157-1665.^32,33 Cells were treated with 2 ng/mL p24 of HIV-1 BaL administered; MOI approx 0.02 (see refs 32, 33). Cells were treated with 2 ng/mL p24 of HIV-1 BaL administered; MOI approx 0.02 (see refs 32, 33).

[3] = pEC50 ± SEM, 293T HEK cells transiently expressing US28, Elk1 reporter
[4] = 10 μM vs 1% DMSO control, Equation 1
[5] = 10 μM, Experiment 1B, 2 ng/mL p24 HIV-1 BaL
[6] = Human immunodeficiency virus 1, BAL, 10 μM, Experiment 1B, 2 ng/mL p24 HIV-1 BaL
[7] = EC50 (μM), 293T HEK cells transiently expressing US28, Elk1 reporter, NE = no effect when tested at 10 μM of compound

With `COc1ccccc1/C=C/C(=O)c1ccccc1O` [Compound 8a, (E)-1-(2-Hydroxyphenyl)-3-(2-methoxyphenyl)prop-2-en-1-one] the “type of activity on the US28 receptor (agonist / inverse agonist / none), in words” value (US28 receptor) was “agonism; also recorded: agonist activity”, the “Efficacy(%)” value (US28 receptor) was 67% and the EC50 (US28 receptor; [3]) was 1.45 µM. It also gave an Emax (US28 receptor) of 67%, an activation at 10 µM [1, 4] of 8% and an IC50 (CHO cells) of 25.5 ± 2.7 µM. The cytotoxicity at 10 μM ([2]; Experiment 1A) was 18.7%, the “RLU (relative luciferase units)” value (HIV-1 BaL; [5]) was 1218.5 RLU and the inhibition at 10 µM (HIV-1 BaL; [6]) was -28.8%.

For `COc1ccc(Br)cc1/C=C/C(=O)c1ccccc1O` [Compound 8b, (E)-3-(5-Bromo-2-methoxyphenyl)-1-(2-hydroxyphenyl)prop-2-en-1-one], the EC50 (US28 receptor; [7]) was 7.8 µM, the “Efficacy(%)” value (US28 receptor) was ~44% and the Emax (US28 receptor) was ~44%. The IC50 (CHO cells) was 8.7 ± 0.3 µM, the cytotoxicity at 10 μM ([2]; Experiment 1A) was 64.2% and the “RLU (relative luciferase units)” value (HIV-1 BaL; [5]) was 202.3 RLU. It also gave an inhibition at 10 µM (HIV-1 BaL; [6]) of 78.6%.

`CCOc1ccc(Br)cc1/C=C/C(=O)c1ccccc1O` [Compound 8c, (E)-3-(5-bromo-2-ethoxyphenyl)-1-(2-hydroxyphenyl)prop-2-en-1-one] showed an EC50 (US28 receptor; [7]) of 5 µM, an Emax (US28 receptor) of ~88% and an activation at 10 µM [1, 4] of -3%. For the same molecule, the IC50 (CHO cells) was 7.2 ± 0.5 µM, the cytotoxicity at 10 μM ([2]; Experiment 1A) was 53.3% and the “RLU (relative luciferase units)” value (HIV-1 BaL; [5]) was 112.3 RLU. For the same molecule, the inhibition at 10 µM (HIV-1 BaL; [6]) was 88.1%.

In the case of `COc1ccccc1/C=C/C(=O)c1c(O)cccc1OCc1ccccc1` [Compound 8k, (E)-1-(2-(Benzyloxy)-6-hydroxyphenyl)-3-(2-methoxyphenyl)prop-2-en-1-one], the “EC50 (μM)” value (US28 receptor; 293T HEK cells transiently expressing US28, Elk1 reporter, NE = no effect when tested at 10 μM of compound) is reported as “Toxic”, the “toxicity at 10 μM in HEK cells, in words” value ([1]; 10 μM) is reported as “very toxic” and the “Effect(%) on mock cells with each drug at 10 μM” value [1, 4] is reported as “Toxic”.

For `COc1ccccc1-c1cc(=O)c2c(OCc3ccccc3)cccc2o1` [Compound 11a, 5-(Benzyloxy)-2-(2-methoxyphenyl)-4H-chromen-4-one], the EC50 (US28 receptor; [7]) was 7.3 µM and the IC50 (CHO cells) was 17.5 ± 1.9 µM.

With `COc1ccc(Br)cc1-c1cc(=O)c2c(OCc3ccccc3)cccc2o1` [Compound 11b, 5-(Benzyloxy)-2-(5-bromo-2-methoxyphenyl)-4H-chromen-4-one] the “type of activity on the US28 receptor (agonist / inverse agonist / none), in words” value (US28 receptor) was “strong inverse agonism activity; also recorded: full inverse agonist”, the “Efficacy(%)” value (US28 receptor) was −89% and the EC50 (US28 receptor; [3]) was 3.47 µM. For the same molecule, the Emax (US28 receptor) was -89%, the “CHO 48 h IC50 value (μM)” value (CHO cells) was “high CHO IC50 value; also recorded: essentially non-toxic; also recorded: not toxic” and the IC50 (CHO cells) was 96.6 µM. The cytotoxicity at 5 μM ([2]; 5 μM, Experiment 2A) was -6.17%, the cytotoxicity at 10 μM ([2]; Experiment 1A) was 6.4% and the cytotoxicity at 10 μM ([2]; Experiment 2A) was -5.05%. The cytotoxicity at 20 μM ([2]; 20 μM, Experiment 2A) was -18.1%, the cytotoxicity at 40 μM ([2]; 40 μM, Experiment 2A) was -29.2% and the cytotoxicity at 80 μM ([2]; 80 μM, Experiment 2A) was -1.51%. For the same molecule, the “RLU (relative luciferase units)” value (HIV-1 BaL; 5 μM, Experiment 2B) was 24.27 RLU, the “RLU (relative luciferase units)” value (HIV-1 BaL; [5]) was 781.6 RLU and the “RLU (relative luciferase units)” value (HIV-1 BaL; 10 μM, Experiment 2B) was 34.09 RLU. For the same molecule, the “RLU (relative luciferase units)” value (HIV-1 BaL; 20 μM, Experiment 2B) was 40.47 RLU, the “RLU (relative luciferase units)” value (HIV-1 BaL; 40 μM, Experiment 2B) was 49.22 RLU and the “RLU (relative luciferase units)” value (HIV-1 BaL; 80 μM, Experiment 2B) was 62.68 RLU. It also gave an inhibition at 5 µM (HIV-1 BaL; Human immunodeficiency virus 1, BAL, 5 μM, Experiment 2B) of -6.17%, an inhibition at 10 µM (HIV-1 BaL; [6]) of 16.5% and an inhibition at 10 µM (HIV-1 BaL; Human immunodeficiency virus 1, BAL, 10 μM, Experiment 2B) of -15.1%. The inhibition at 20 µM (HIV-1 BaL; Human immunodeficiency virus 1, BAL, 20 μM, Experiment 2B) was -18.1%, the inhibition at 40 µM (HIV-1 BaL; Human immunodeficiency virus 1, BAL, 40 μM, Experiment 2B) was -29.2% and the inhibition at 80 µM (HIV-1 BaL; Human immunodeficiency virus 1, BAL, 80 μM, Experiment 2B) was -1.51%.

With `CC[C@H](C)[C@@H]1NC(=O)CNC(=O)[C@H](CCCCN)NC(=O)CNC(=O)[C@@H]2CSSC[C@H](NC1=O)C(=O)N[C@@H](CCCNC(=N)N)C(=O)N[C@H]1CSSC[C@H](NC(=O)[C@H](CCCNC(=N)N)NC(=O)[C@@H]3CSSC[C@H](NC(=O)[C@H]([C@@H](C)CC)NC1=O)C(=O)NCC(=O)N[C@@H](CCCNC(=N)N)C(=O)NCC(=O)N[C@@H]([C@@H](C)CC)C(=O)N3)C(=O)N[C@@H]([C@@H](C)CC)C(=O)N2` [RC-101, reference compound] the cytotoxicity at 10 μM ([2]; Experiment 2A) was -1.43%, the “Mean % Inhibition of Infection” value (HIV-1 BaL; 10 μM, Experiment 2B) was 99.38% and the “RLU (relative luciferase units)” value (HIV-1 BaL; 10 μM, Experiment 2B) was 1.67 RLU.
